What was measured:
[1] = target: T1, CLDN3 (Homo sapiens, UniProt O15551); assay: Flow cytometric binding assay, HEK-293T-17 CLDN3 transductants; conditions: 10 μg/mL RiboMab02.1 in HEK-293T-17 supernatant
T1 construct: expressed in transfected cells
T1 sequence (O15551 1-220): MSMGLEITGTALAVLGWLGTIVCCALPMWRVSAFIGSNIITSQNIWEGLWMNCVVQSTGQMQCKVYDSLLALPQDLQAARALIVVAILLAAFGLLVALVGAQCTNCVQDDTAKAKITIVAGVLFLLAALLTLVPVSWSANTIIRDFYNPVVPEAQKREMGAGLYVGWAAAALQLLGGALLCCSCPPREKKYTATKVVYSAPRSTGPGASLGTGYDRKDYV
From the text: (§1) Cells were first gated for singlets followed by gating for viable lymphocytes (PBMCs) or viable HEK-293T-17 cells. […] Cynomolgus monkey or human PBMCs and HEK-293T-17 transductants stably expressing luciferase (HEK-293T-17_mock), CLDN3, 4, 6 or 9 served as target cells as indicated. The dotted vertical line marks the peak position of unstained populations.

[2] = target: T2, human CD3 (Homo sapiens, UniProt P07766); assay: Flow cytometric binding assay, human PBMCs; conditions: 10 μg/mL
T2 construct: endogenous in cells; host or cells: human PBMCs (T cells)
From the text: as §1

[3] = system: MDA-MB-231 cell line; assay: T-cell-mediated cytotoxicity assay (bioluminescence), MDA-MB-231; format: cell-based, human; conditions: CLDN6-negative MDA-MB-231; RiboMab02.1-containing mouse serum
Description: Human PBMCs from eight healthy donors were co-cultured with luciferase-expressing tumor cells. CLDN6-positive PA-1 (A) or OV-90 (B) cell lines were used as target cells and the CLDN6-negative MDA-MB-231 (A, B) cell line to control for target specificity. The assays were performed in a 384-well plate format with an effector-to-target-cell ratio of 20:1. Bioluminescence of viable tumor cells was measured as readout. Specific lysis percentages of tumor cell killing are presented. RiboMab02.1-containing mouse serum was serially-diluted (10-fold, 10-point; range: 5.0×10^−7 to 500 ng/mL) and added to the co-cultures, followed by incubation for (A) 24 h with PA-1 cells or (B) 48 h with OV-90 cells. Each line represents tumor cell lysis with an individual donor's PBMC sample.
Bioluminescence-based cytotoxicity assays were conducted using luciferase-expressing cell lines.
The CLDN6-positive human ovarian cancer cell lines PA-1 and OV-90 served to determine target-dependent lysis efficiency while the target-negative human breast cancer cell line MDA-MB-231 was used as negative control to confirm target-specific lysis. Human PBMCs from eight different healthy donors were used as effector cells to reflect the donor-dependent heterogeneity of human T-cell responses. […]

[4] = system: human PBMCs (T cells); assay: T-cell proliferation assay (CFSE-labeled PBMCs, flow cytometry); format: cell-based
From the text: CFSE-labeled human PBMCs from three healthy donors were co-cultured with CLDN6-positive PA-1 and OV-90 target cells or with CLDN6-negative but control TAA-positive NUGC-4 as well as target-negative MDA-MB-231 control cells in a 12-well culture plate format. An effector-to-target-cell ratio of 10:1 was applied. In addition, PBMCs without (−) target cells were included separately. […] OKT3 antibody (anti-human CD3; black bars) served as positive control for target-independent CD3-driven T-cell proliferation. After 72 h of incubation, the percentages of proliferating T cells were analyzed by flow cytometry.
HEK-293T-17 producer cells were transfected with BNT142 or a control RiboMab-encoding RNA. Supernatants containing RiboMab02.1 or the control RiboMab (specific for an irrelevant TAA) were used as test items. Two concentrations (100 or 1 ng/mL) of RiboMab-containing supernatant were added to co-cultures of carboxyfluorescein succinimidyl ester (CFSE)-labeled human PBMCs and target-positive or -negative cells. PA-1 or OV-90 served as CLDN6-positive and MDA-MB-231 as target-negative cells. CLDN6-negative NUGC-4 cells (expressing the irrelevant TAA) as well as PBMCs in the absence of any target cells were included as further specificity controls. PBMCs from three healthy donors were compared in this assay. After 72 h of incubation, T cells were analyzed by flow cytometry to determine target-dependent proliferation.

[5] = system: human PBMCs (T cells); assay: T-cell activation assay (CD69/CD25, flow cytometry); format: cell-based
Description: Human PBMCs from three healthy donors (effector cells) were cultured in the presence and absence of CLDN6-positive PA-1 cells (target cells) at a 10:1 effector-to-target-cell ratio. RiboMab02.1-containing mouse serum was serially-diluted (10-fold, 10-point; range: 4.0×10^−6 to 4,000 ng/mL) prior to use in the assay. After 48 h of co-incubation, cells were stained with anti-CD5, anti-CD69 and anti-CD25 antibodies for flow cytometric analysis of T cells. Shown here is the total T-cell activation normalized to samples incubated with mock serum from Luc_RNA-LNP-treated mice. Percentages of activated T cells are shown for each individual donor (left) and for all three donors as mean (right). Filled symbols represent values with and black, open symbols without target cells.
RiboMab02.1-containing as well as mock serum samples were obtained from mice administered either with BNT142 or luciferase encoding RNA-LNP (Luc_RNA-LNP; mock). Human PBMCs from three healthy donors were used as effector cells. Serum samples were serially-diluted (10-fold, 10-point), starting at 4,000 ng/mL, and added to PBMCs cultured alone or together with CLDN6-positive PA-1 target cells at an effector-to-target-cell ratio of 10:1. After 48 h of incubation, T cells were analyzed by flow cytometry for surface expression of the early and late activation markers CD69 and CD25, respectively. […] OKT3 positive control led to >50% T-cell activation with and without target cells (data not shown). Upregulation of CD69 on T cells was higher than that of CD25; CD25-positive cells were almost exclusively CD69 double-positive, pointing to an early activation state (data not shown).

[6] = target: T3, CLDN9 (Homo sapiens, UniProt O95484); assay: Flow cytometric binding assay, HEK-293T-17 CLDN9 transductants; design: expressed in transfected cells; conditions: 10 μg/mL RiboMab02.1 in HEK-293T-17 supernatant
T3 sequence (O95484 1-217): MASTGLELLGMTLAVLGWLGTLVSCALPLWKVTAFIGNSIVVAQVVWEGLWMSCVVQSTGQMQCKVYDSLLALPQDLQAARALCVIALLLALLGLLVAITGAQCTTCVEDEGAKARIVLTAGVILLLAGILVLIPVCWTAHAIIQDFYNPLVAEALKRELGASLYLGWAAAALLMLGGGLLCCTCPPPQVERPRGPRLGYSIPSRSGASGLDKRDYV
From the text: as §1

T2 sequence (P07766 23-207): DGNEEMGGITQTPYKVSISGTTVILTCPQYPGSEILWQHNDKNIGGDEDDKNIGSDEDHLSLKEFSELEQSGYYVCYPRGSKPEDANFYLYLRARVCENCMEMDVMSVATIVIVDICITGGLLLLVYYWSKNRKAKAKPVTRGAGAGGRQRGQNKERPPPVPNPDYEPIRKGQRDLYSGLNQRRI
T2 sequence (P04234 22-171 partner): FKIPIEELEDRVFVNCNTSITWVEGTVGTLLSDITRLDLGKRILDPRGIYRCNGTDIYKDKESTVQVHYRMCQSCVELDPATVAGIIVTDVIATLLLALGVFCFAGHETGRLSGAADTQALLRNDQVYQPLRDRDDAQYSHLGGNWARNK
T2 sequence (P09693 23-182 partner): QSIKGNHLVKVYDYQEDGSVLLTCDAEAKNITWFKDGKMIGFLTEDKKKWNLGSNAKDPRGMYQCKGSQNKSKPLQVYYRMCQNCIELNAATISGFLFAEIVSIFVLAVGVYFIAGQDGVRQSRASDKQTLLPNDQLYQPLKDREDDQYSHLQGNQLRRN
T2 sequence (P20963 22-164 partner): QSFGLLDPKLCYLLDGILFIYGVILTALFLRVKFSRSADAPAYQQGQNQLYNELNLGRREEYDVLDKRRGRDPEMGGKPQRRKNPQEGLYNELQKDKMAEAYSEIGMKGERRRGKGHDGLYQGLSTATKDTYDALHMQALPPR

**Q.** How did the “binding to CLDN3” value [1] turn out when “RiboMab02.1: Fab-(scFv)2-based bispecific antibody (tribody) against CLDN6 and CD3 encoded by BNT142; SEQ ID NOs: 4 and 6; C53S” was run?
**A.** Its value is “not to CLDN3, CLDN4 or CLDN9”.

**Q.** And the “binding to human CD3” value [2]?
**A.** Its value is “recognized”.

**Q.** And the target-independent lysis [3]?
**A.** Its target-independent lysis is “did not induce target-independent (non-specific) lysis”.

**Q.** What about the T-cell proliferation ([4]; PBMCs co-cultured with CLDN6-negative NUGC-4 cells) of the same substance?
**A.** The T-cell proliferation was “no RiboMab02.1-driven T-cell proliferation”.

**Q.** What about the T-cell proliferation ([4]; PBMCs co-cultured with MDA-MB-231 cells) of the same substance?
**A.** The T-cell proliferation was “no RiboMab02.1-driven T-cell proliferation”.

**Q.** And the T-cell proliferation ([4]; absence of any target cells)?
**A.** Its T-cell proliferation is “no RiboMab02.1-driven T-cell proliferation”.

**Q.** And the T-cell proliferation ([4]; with OV-90 cells, 1 ng/mL, 72 h)?
**A.** The T-cell proliferation was 2±3%.

**Q.** What about the T-cell proliferation ([4]; with OV-90 cells, 100 ng/mL, 72 h) of the same substance?
**A.** The T-cell proliferation was 24±3%.

**Q.** And the T-cell proliferation ([4]; with PA-1 cells, 1 ng/mL, 72 h)?
**A.** The T-cell proliferation was about 44±7%.

**Q.** And the T-cell proliferation ([4]; with PA-1 cells, 100 ng/mL, 72 h, E:T 10:1, three donors)?
**A.** The T-cell proliferation was “approximately 58±2%”.

**Q.** What about the “off-target T-cell activation” value ([5]; PBMCs without target cells, up to 40 ng/mL RiboMab02.1, 48 h) of the same substance?
**A.** The value was “No off-target T-cell activation”.

**Q.** And the “concentration above EC50 up to which T-cell activation is target-dependent” value ([5]; onset of unspecific T-cell activation relative to EC50)?
**A.** The value was > 1,500 fold.

**Q.** And the “binding to CLDN9” value [6]?
**A.** The value was “not to CLDN3, CLDN4 or CLDN9”.

Source: patent US20250009780A1, “AGENTS ENCODING CLDN6 AND CD3 BINDING ELEMENTS FOR TREATING CLDN6-POSITIVE CANCERS” (BIONTECH SE, priority 2021, published 2025)
